{"source": "patent US4134989A", "about": "(Aziende Chimiche Riunite Angelini Francesco A.C.R.A.F. …, priority 1976, dated 1979)", "key": {"[1]": {"system": "gastric mucosa", "test": "Gastrointestinal tolerance: ulcerogenic activity in the gastric mucosa of rats", "format": "in vivo, Long-Evans rats", "experimental": "(§2) Experiments were done in Long-Evans rats of both sexes weighing 150-190 grams. The drugs were suspended in methyl-cellulose (0.5%) and given by gavage. The animals were fasted during the 8 hours before treatment and were sacrificed 18 hours later. They were autopsied and gastrointestinal lesions were scored according to the score system described by Cioli et al. (1967)."}, "[2]": {"system": "carrageenin-induced paw edema", "test": "Anti-edema activity: carrageenin-induced paw edema in rats (Winter et al.)", "format": "in vivo, Long-Evans rats", "parameters": "Reduction of edema: unit not given here", "settings": "for anti-inflammatory activity, comparison of the two drugs: carrageenin edema, rats, by gavage", "excerpt": "(§1) 3. Anti-inflammatory activity: In connection with the anti-inflammatory activity, both the anti-edema and analgesic activities were studied (namely, the ability to inhibit the painful response from inflamed tissues). The anti-edema activity was studied according to Winter et al. (1962). WINTER C. A., RISLEY E. A. and NUSS G. W., Carrageenin-induced edema in hind\npaw of the rat as an assay for anti-inflammatory drugs. Proc. Soc. Exp. Biol. Med. 111, 544-547, 1962. […]"}, "[3]": {"system": "writhing reflexes induced by phenylquinone", "test": "Analgesic activity: writhing reflexes induced by phenylquinone (Hendershot and Forsaith)", "format": "in vivo, Swiss mice", "excerpt": "as §1\nThe analgesic activity was studied according to Hendershot and Forsaith (1959). HENDERSHOT L. C. and FORSAITH J., Antagonism of the frequency of phenylquinone induced writhing in the mouse by weak analgesics and non-analgesics. J. Pharmacol. Exp. Ther. 125, 237-240, 1959. Swiss mice of both sexes weighing 18-22 grams were used."}, "[4]": {"test": "Pharmacokinetic study: serum samples after oral administration to rats", "format": "in vivo, Long-Evans rats", "procedure": "The test for the anti-tussive activity was done according to S[…]nd Pozzatti (1960) S[…]. and POZZATTI C., Anti-tussive activity and other pharmacological properties of six oxadiazoles. Arch. int. pharmacodyn. 129, 249-263, 1960. Since the details are given in this publication, it should only be recalled that the test is performed on guineapigs by using acrolein inhalation to produce cough. Male guinea pigs were used weighing 300-500 grams. The pharmacokinetic study was performed in Long-Evans rats of both sexes weighing 150 grams. […] The animals were sacrificed at\ntime intervals and serum samples were taken. […] MIZUTANI M. and NAITO S., Studies on absorption and excretion of drugs. XXIX. Biopharmaceutical studies on guaiacol glycerol ether and related compounds. I. Blood level of guaiacol glycerol ether in rabbit and its binding with serum proteins. Chem. Pharm. Bull. 15, 1422-1426, 1967. Moreoever, ibuprofen and guaiacol were dosed according to the methods of Kaiser and […] (1974) and Mizutani and Naito (1967), respectively. KAISER, D. G. and […]. J., GLC determination of ibuprofen [(+)-2-(p-isobutylphenyl)propionic acid] in plasma. J. Pharm. Sci. 63, 219-221, 1974. MIZUTANI M. and NAITO S., Studies on absorption and excretion of drugs. XXIX. Biopharmaceutical studies on guaiacol glycerol ether and related compounds. […]"}, "[5]": {"system": "intestine", "settings": "rat, in vivo, po", "experimental": "as §2"}, "[6]": {"test": "in vivo", "settings": "rat, po", "experimental": "Long-Evans rats of both sexes were used weighing 135-188 grams. The drugs were suspended in methyl-cellulose (0.5%) and given by gavage. Deaths were recorded during the two weeks following treatment. The LD50 was calculated according to Litchfield and Wilcoxon (1949)."}, "[7]": {"system": "cough produced by acrolein inhalation", "test": "Anti-tussive activity: cough produced by acrolein inhalation in guinea pigs (Silvestrini and Pozzatti)", "format": "in vivo", "settings": "Cavia porcellus, acrolein-induced cough", "procedure": "The test for the anti-tussive activity was done according to Silvestrini and Pozzatti (1960) […] B. and POZZATTI C., Anti-tussive activity and other pharmacological properties of six oxadiazoles. Arch. int. pharmacodyn. 129, 249-263, 1960. Since the details are given in this publication, it should only be recalled that the test is performed on guineapigs by using acrolein inhalation to produce cough. Male guinea pigs were used weighing 300-500 grams. The pharmacokinetic study was performed in Long-Evans rats of both sexes weighing 150 grams. […] The animals were sacrificed at […]"}, "[8]": {"test": "Hydrolysis of GIH in the presence of serum"}, "[9]": {"test": "Hydrolysis of GIH in the presence of artificial gastric juices"}, "[10]": {"system": "intestine", "test": "Gastrointestinal tolerance: ulcerogenic activity on the intestine of rats", "settings": "intestinal lesions, by gavage", "experimental": "as §2"}}, "note": "Read-outs that look alike come from different tables or passages of the source."}
{"smiles": "CC(C)Cc1ccc(C(C)C(=O)O)cc1", "note": "(single isomer, unassigned; (+)) [Ibuprofen, (+)-2-(p-isobutylphenyl)propionic acid, reference compound]", "values": [{"measurement": "% of rats with ulcers", "setting": "[1]; 16 mg/kg p.o.", "value": 11, "unit": "%"}, {"measurement": "% of rats with ulcers", "setting": "[1]; 25 mg/kg p.o.", "value": 33, "unit": "%"}, {"measurement": "% of rats with ulcers", "setting": "[1]; 75 mg/kg p.o.", "value": 43, "unit": "%"}, {"measurement": "Reduction of edema", "setting": "[2]; 2.5 mg/kg p.o., 2 hours", "value": 17}, {"measurement": "Reduction of edema", "setting": "[2]; 2.5 mg/kg p.o., 4 hours", "value": 15}, {"measurement": "Reduction of edema", "setting": "[2]; 2.5 mg/kg p.o., 6 hours", "value": 3}, {"measurement": "Reduction of edema", "setting": "[2]; 5 mg/kg p.o., 2 hours", "value": 41}, {"measurement": "Reduction of edema", "setting": "[2]; 5 mg/kg p.o., 4 hours", "value": 31}, {"measurement": "Reduction of edema", "setting": "[2]; 5 mg/kg p.o., 6 hours", "value": 26}, {"measurement": "Reduction of edema", "setting": "[2]; 10 mg/kg p.o., 2 hours", "value": 57}, {"measurement": "Reduction of edema", "setting": "[2]; 10 mg/kg p.o., 4 hours", "value": 47}, {"measurement": "Reduction of edema", "setting": "[2]; 10 mg/kg p.o., 6 hours", "value": 36}, {"measurement": "anti-inflammatory activity, comparison of the two drugs", "setting": "[2]", "value": "substantially the same anti-inflammatory activity"}, {"measurement": "% reduction in number of writhings", "setting": "[3]; 5 mg/kg p.o.", "value": 18, "unit": "%"}, {"measurement": "% reduction in number of writhings", "setting": "[3]; 10 mg/kg p.o.", "value": 46, "unit": "%"}, {"measurement": "% reduction in number of writhings", "setting": "[3]; 20 mg/kg p.o.", "value": 52, "unit": "%"}, {"measurement": "presence in serum samples of rats treated with GIH", "setting": "[4]", "value": "found in the serum samples"}, {"measurement": "% of rats with ulcers", "setting": "[5]; 16 mg/kg", "value": 0, "unit": "%"}, {"measurement": "% of rats with ulcers", "setting": "[5]; 25 mg/kg", "value": 20, "unit": "%"}, {"measurement": "% of rats with ulcers", "setting": "[5]; 75 mg/kg", "value": 63, "unit": "%"}, {"measurement": "LD50 at 336 h", "setting": "[6]", "value": 640, "unit": "mg/kg"}]}
{"smiles": "COc1ccccc1OC(=O)C(C)c1ccc(CC(C)C)cc1", "note": "(stereo not shown) [GIH, guaiacol p-isobutyl hydratropate]", "values": [{"measurement": "% of rats with ulcers", "setting": "[1]; 25 mg/kg p.o.", "value": 0, "unit": "%"}, {"measurement": "% of rats with ulcers", "setting": "[1]; 38 mg/kg p.o.", "value": 10, "unit": "%"}, {"measurement": "% of rats with ulcers", "setting": "[1]; 112 mg/kg p.o.", "value": 33, "unit": "%"}, {"measurement": "effect on the gastric mucosa compared with ibuprofen", "setting": "[1]; rats, by gavage", "value": "less toxic than ibuprofen"}, {"measurement": "Reduction of edema", "setting": "[2]; 1.9 mg/kg p.o., 2 hours", "value": 22}, {"measurement": "Reduction of edema", "setting": "[2]; 1.9 mg/kg p.o., 4 hours", "value": 12}, {"measurement": "Reduction of edema", "setting": "[2]; 1.9 mg/kg p.o., 6 hours", "value": 1}, {"measurement": "Reduction of edema", "setting": "[2]; 3.8 mg/kg p.o., 2 hours", "value": 33}, {"measurement": "Reduction of edema", "setting": "[2]; 3.8 mg/kg p.o., 4 hours", "value": 26}, {"measurement": "Reduction of edema", "setting": "[2]; 3.8 mg/kg p.o., 6 hours", "value": 17}, {"measurement": "Reduction of edema", "setting": "[2]; 7.5 mg/kg p.o., 2 hours", "value": 41}, {"measurement": "Reduction of edema", "setting": "[2]; 7.5 mg/kg p.o., 4 hours", "value": 28}, {"measurement": "Reduction of edema", "setting": "[2]; 7.5 mg/kg p.o., 6 hours", "value": 27}, {"measurement": "Reduction of edema", "setting": "[2]; 15 mg/kg p.o., 2 hours", "value": 50}, {"measurement": "Reduction of edema", "setting": "[2]; 15 mg/kg p.o., 4 hours", "value": 45}, {"measurement": "Reduction of edema", "setting": "[2]; 15 mg/kg p.o., 6 hours", "value": 43}, {"measurement": "anti-inflammatory activity, comparison of the two drugs", "setting": "[2]", "value": "substantially the same anti-inflammatory activity"}, {"measurement": "% reduction in number of writhings", "setting": "[3]; 1.9 mg/kg p.o.", "value": 11, "unit": "%"}, {"measurement": "% reduction in number of writhings", "setting": "[3]; 3.8 mg/kg p.o.", "value": 28, "unit": "%"}, {"measurement": "% reduction in number of writhings", "setting": "[3]; 7.5 mg/kg p.o.", "value": 37, "unit": "%"}, {"measurement": "% reduction in number of writhings", "setting": "[3]; 15 mg/kg p.o.", "value": 43, "unit": "%"}, {"measurement": "% reduction in number of writhings", "setting": "[3]; 30 mg/kg p.o.", "value": 55, "unit": "%"}, {"measurement": "minimal effective dose", "setting": "[7]; po", "value": 25, "unit": "mg/kg"}, {"measurement": "% of rats with ulcers", "setting": "[5]; 25 mg/kg", "value": 0, "unit": "%"}, {"measurement": "% of rats with ulcers", "setting": "[5]; 38 mg/kg", "value": 20, "unit": "%"}, {"measurement": "% of rats with ulcers", "setting": "[5]; 112 mg/kg", "value": 33, "unit": "%"}, {"measurement": "LD50 at 336 h", "setting": "[6]", "value": 1650, "unit": "mg/kg"}, {"measurement": "hydrolysis", "setting": "[8]", "value": "rapidly hydrolyzed into ibuprofen and guaiacol"}, {"measurement": "hydrolysis", "setting": "[9]", "value": "no hydrolysis occurs"}, {"measurement": "gastrointestinal toxicity compared with ibuprofen", "setting": "[10]", "value": "less toxic than ibuprofen"}]}
{"smiles": "COc1ccc2c3c1O[C@H]1[C@@H](O)C=C[C@H]4[C@@H](C2)N(C)CC[C@@]341", "note": "[codein, reference compound]", "values": [{"measurement": "minimal effective dose", "setting": "[7]; ip", "value": 2.5, "unit": "mg/kg"}]}
